Key:
Korean native steers = assay: Hematological analysis (VetScan HM2) under cold stress conditions; type: in vivo, Korean native cattle; design: MON / GRA / RBC / HGB / HCT / MCH / WBC / LYM: unit not given here; settings: for GRA / HCT / HGB / LYM / MCH / MON / PLT / RBC / WBC: 0.1% NALT
From the text: After grouping the animals by statistical analysis of initial body weights, the animals were bred in 1.0×1.5 m^2 individual pens during the experiment period. The feed was offered based on an amount of dry matter of daily total mixed ration (TMR) per head. After 7 days of an adaptation period for N-acetyl-L-tryptophan (NALT), a mixture of 0.1% N-acetyl-L-tryptophan (NALT) and the total mixed ration was fed to individual animals every morning at 8 a.m. for 6 weeks, and water was available ad libitum. Total amounts of L-tryptophan ingested by the control and NALT-treated group by feeding NALT were 7.37 g/day/head and 16.26 g/day/head, respectively. The experiment was performed such that the NALT-treated group ingested 8.89 g/day/head more L-tryptophan than that of the control.
Meanwhile, results of growth performance analysis (body weight and average feed intake) and genetic analysis of loin tissue were obtained by statistically comparing and analyzing significant differences between the control and the NALT-treated group, and results of hematological analysis were obtained via statistical comparison and analysis depending on NALT treatment, experiment period (days), and interaction (treatment×days). These numerical values were expressed as average values, and a significance test was performed at the 5% level using Student's t-test by using the JMP 5.0 software package (SAS Institute Inc., Cary, NC, USA).
Blood was collected from a jugular vein of each sentinel animal before offering the feed at the starting day of the experiment (week 0), the mid-point of the experiment (week 4), and the final day of the experiment (week 7) and added to a vacutainer (Becton Dickinson, Franklin Lakes, NJ, USA). Hematological analysis was conducted using a VetScan HM2 Hematology System (Abaxis, Union City, CA, USA).

[1] = system: genes related to fat differentiation (PPARr, CEBPa, FABP4, LPL, and SCD) and muscle differentiation (MYF6, MyoD, and MyoG) of the loin tissue; assay: Real-time PCR of gene expression related to loin tissue development under heat stress conditions; type: in vivo, Korean native cattle
From the text: After grouping the animals by statistical analysis of initial body weights, the animals were bred in 1.0×1.5 m^2 individual pens during the experiment period. The feed was offered based on an amount of dry matter of daily total mixed ration (TMR) per head. After 7 days of an adaptation period for N-acetyl-L-tryptophan (NALT), a mixture of 0.1% N-acetyl-L-tryptophan (NALT) and the total mixed ration was fed to individual animals every morning at 8 a.m. for 6 weeks, and water was available ad libitum. Total amounts of L-tryptophan ingested by the control and the experimental group (NALT-treated group) by feeding NALT were 6.0 g/day/head and 18.2 g/day/head, respectively. The experiment was performed such that the NALT-treated group ingested 12.2 g/day/head more L-tryptophan than the control. Meanwhile, results of growth performance analysis (body weight and average feed intake) and genetic analysis of loin tissue were obtained by statistically comparing and analyzing significant differences between the control and the NALT-treated group, and results of hematological analysis were obtained via statistical comparison and analysis depending on NALT treatment, experiment period (days), and interaction (treatment×days). These numerical values were expressed as average values, and a significance test was performed at the 5% level using Student's t-test by using a JMP 5.0 software package (SAS Institute Inc., Cary, NC, USA). Samples of loin tissue of the sentinel animals were obtained on the final day of the experiment (week 10). The samples were obtained using a biopsy gun for animals (TNT Research Co., Ltd., Gyeonggi-do, Republic of Korea), added to a 2 mL tube, and incubated in liquid nitrogen gas. After extraction of RNA from each tissue sample, real-time PCR was conducted to analyze expression levels of genes related to fat differentiation (PPARr, CEBPa, FABP4, LPL, and SCD) and muscle differentiation (MYF6, MyoD, and MyoG) of the loin tissue of each animal. Total RNA was isolated using the TRIzol RNA isolation protocol, and the amount of RNA was measured using a NanoDrop 1000 (Thermo Scientific, Seoul, Republic of Korea). The RNA integrity (RIN) was estimated using an RNA Nano 6000 Assay Kit of the Agilent Bioanalyzer 2100 system (Agilent Technologies, Richardson, USA), and an obtained RNA integrity number (RIN) was 6.5±0.27. After synthesizing cDNA from mRNA, real-time PCR was conducted to measure expression levels of the genes.

[2] = 0.1% NALT, week 10, control = 1.00000

**Q.** How did the “All hematological indicators except for monocytes, compared with the control” value (Korean native steers) turn out when CC(=O)N[C@@H](Cc1c[nH]c2ccccc12)C(=O)O [NALT, N-acetyl-L-tryptophan] was run?
**A.** No statistically significant difference

**Q.** And the “Hematological indicator values relative to normal ranges” value (Korean native steers)?
**A.** within normal ranges

**Q.** And the GRA (Korean native steers; 0 wks)?
**A.** 3.01

**Q.** What about the HCT (Korean native steers; 0 wks) of the same compound?
**A.** 35.00

**Q.** What about the HGB (Korean native steers; 0 wks) of the same compound?
**A.** 13.60

**Q.** What about the LYM (Korean native steers; 0 wks) of the same compound?
**A.** 5.55

**Q.** And the MCH (Korean native steers; 0 wks)?
**A.** 12.83

**Q.** And the MON (Korean native steers; 0 wks)?
**A.** 0.10

**Q.** What about the PLT (Korean native steers; 0 wks) of the same compound?
**A.** 378.0

**Q.** What about the RBC (Korean native steers; 0 wks) of the same compound?
**A.** 10.70

**Q.** And the WBC (Korean native steers; 0 wks)?
**A.** 8.66

**Q.** And the GRA (Korean native steers; 4 wks)?
**A.** 2.09

**Q.** What about the HCT (Korean native steers; 4 wks) of the same compound?
**A.** 34.64

**Q.** And the HGB (Korean native steers; 4 wks)?
**A.** 14.20

**Q.** And the LYM (Korean native steers; 4 wks)?
**A.** 6.55

**Q.** And the MCH (Korean native steers; 4 wks)?
**A.** 13.80

**Q.** And the MON (Korean native steers; 4 wks)?
**A.** 0.06

**Q.** What about the PLT (Korean native steers; 4 wks) of the same compound?
**A.** 476.8

**Q.** And the RBC (Korean native steers; 4 wks)?
**A.** 10.34

**Q.** What about the WBC (Korean native steers; 4 wks) of the same compound?
**A.** 8.70

**Q.** And the GRA (Korean native steers; 7 wks)?
**A.** 3.29

**Q.** And the HCT (Korean native steers; 7 wks)?
**A.** 33.88

**Q.** And the HGB (Korean native steers; 7 wks)?
**A.** 13.68

**Q.** What about the LYM (Korean native steers; 7 wks) of the same compound?
**A.** 5.98

**Q.** And the MCH (Korean native steers; 7 wks)?
**A.** 13.70

**Q.** And the MON (Korean native steers; 7 wks)?
**A.** 0.08

**Q.** And the PLT (Korean native steers; 7 wks)?
**A.** 379.5

**Q.** And the RBC (Korean native steers; 7 wks)?
**A.** 10.08

**Q.** What about the WBC (Korean native steers; 7 wks) of the same compound?
**A.** 9.34

**Q.** And the “Gene expression level of SCD compared to the control” value [1]?
**A.** tended to be higher

**Q.** What about the “C/EBPα expression level in loin tissue” value [1, 2] of the same compound?
**A.** 0.8053

**Q.** And the “FABP4 expression level in loin tissue” value [1, 2]?
**A.** 1.501

**Q.** And the “LPL expression level in loin tissue” value [1, 2]?
**A.** 1.774

**Q.** And the “MYF6 expression level in loin tissue” value [1, 2]?
**A.** 1.093

**Q.** And the “MyoD expression level in loin tissue” value [1, 2]?
**A.** 1.045

**Q.** What about the “MyoG expression level in loin tissue” value [1, 2] of the same compound?
**A.** 2.086

**Q.** What about the “PPARγ expression level in loin tissue” value [1, 2] of the same compound?
**A.** 1.301

**Q.** And the “SCD expression level in loin tissue” value [1, 2]?
**A.** 1.448

**Q.** And the “Expression levels of MYF6 and MyoG and of lipolysis/fat transport genes (FABP4 and LPL) in loin tissue compared to the control” value ([1]; p<0.05)?
**A.** higher

**Q.** What about the “Expression of muscle differentiation-related gene (MyoD) and fat differentiation-related genes (C/EBPα and PPARγ) compared to the control” value ([1]; p>0.05) of the same compound?
**A.** No statistically significant difference

Source: patent US12186303B2, “Feed additive for cattle comprising n-acetyl-l-tryptophan as active ingredient” (CJ CHEILJEDANG CORPORATION, priority 2018, dated 2025)
